Experiments:
[1] = Dynamic Vapor Sorption (DVS) measurement of water absorption by humectants; assay type: physicochemical; settings: for Percentage of water absorbed based on weight of the tested compound: 25° C., equilibrium
Protocol: Dynamic Vapor Sorption (DVS) technique was used to measure the moisture intake of a specific compound at certain humidity level. A DVS Intrinsic instrument manufactured by Surface Measurement Systems UK Ltd. (London, United Kingdom) was used to measure DVS. The following measurement procedure was used to determine the water vapor absorption of a specific compound.
A uniform aqueous solution of a specific, target compound was made at 50% concentration. About 1.2 to 1.6 mg of the prepared aqueous solution was added to DVS instrument at zero tare balance. The temperature was then set at 25° C., and the measurement was performed at various humidity levels. The first measurement was performed at a humidity of 90% to ensure that the sample absorbs the highest level of water in order to minimize the mass transfer barrier during the evaporation process. The typical humidity measurements were then taken at 50%, 40%, 30%, 20%, 10%, and 0% humidity. The dynamics of water absorption was determined by the weight change per minute. If weight change per minute was less than 0.005% of the sample weight, it was deemed that water absorption had reached the equilibrium point. The equilibrium weight at 0% humidity is the sample weight by itself. Thus, the percentage of equilibrium water absorption at various humidity levels was calculated.
Using the above procedure, DVS was used to evaluate water absorption for DGA Acetamide as compared to hydroxyethyl urea and glycerol at different humidity levels.

[2] = tested on: skin (inner forearm of each panelist); test: Corneometer measurement of skin moisture after a single application of gel formulation; assay type: in vivo; settings: 5 wt % gel, average of eight panelists
Protocol: To prepare a gel formulation, deionized water was added to a 4 oz. tall jar that was set up for mixing using an overhead mixer and a jiffy blade. The water was then mixed at a speed that created a good vortex that nearly reached the bottom of the jar (e.g., about 700 rpm). To this, Carbopol® 940 (cross-linked polyacrylate polymer available from Lubrizol, […], Ohio) was slowly added and mixed for at least 15 minutes until homogeneous. Triethanolamine (TEA) was then added and the mixing speed was adjusted overhead to about 200 rpm and continued mixing for about 10 minutes (e.g., product viscosity increased). To this mixture, 5 wt % of the sample compound in its pure form (or hydroxyethyl urea or glycerol control) was added followed by 0.5 wt % GlydantTM PlusTM (a preservative available from Lonza, Basel, Switzerland) and the remaining, balance water. Mixing was continued at 200 rpm for about 15-20 minutes. The mixture was then removed from the mixer and the final pH was measured. […] Moisture levels were measured using a Corneometer® CM 825 (available from CK Industries) prior to and at various time intervals after the sample application at a temperature of 22° C. and relative humidity of 50%, wherein the corneometer values recorded are the difference between the corneometer reading at a given time and the initial corneometer reading at 0 hours, which is set at zero. […]

In the case of `CC(=O)NCCOCCO` [DGA acetamide, N-acetyl diglycolamine], the “Percentage of water absorbed based on weight of the tested compound” value (“Percentage of water absorbed based” for short) ([1]; 10% rel. humidity) is reported as 2.6%, the “Percentage of water absorbed based” value ([1]; 20% rel. humidity) is reported as 5.9% and the “Percentage of water absorbed based” value ([1]; 30% rel. humidity) is reported as 9.9%. The “Percentage of water absorbed based” value ([1]; 40% rel. humidity) was 15.3%, the “Percentage of water absorbed based” value ([1]; 50% rel. humidity) was 26.9% and the “water absorption capability (comparison in words)” value ([1]; 50% relative humidity) was “on par with glycerol”. The “water absorption capability (comparison in words)” value ([1]; relative humidity levels of 10%, 20% 30%, and 40%) was “on par with that for hydroxyethyl urea”, the “humectance performance (corneometer) versus glycerol” value ([2]; at 24 hours) was “same as glycerol” and the “corneometer readings versus control (water) formulation” value ([2]; entire time range tested (24 hours), 22° C., 50% relative humidity) was “superior to the control formulation”.

In the case of `OCC(O)CO` [Glycerol, glycerol], the “Percentage of water absorbed based” value ([1]; 10% rel. humidity) is reported as 4.6%, the “Percentage of water absorbed based” value ([1]; 20% rel. humidity) is reported as 8.6% and the “Percentage of water absorbed based” value ([1]; 30% rel. humidity) is reported as 15.9%. For the same compound, the “Percentage of water absorbed based” value ([1]; 40% rel. humidity) was 23.3% and the “Percentage of water absorbed based” value ([1]; 50% rel. humidity) was 27.7%.

With `NC(=O)NCCO` [Hydroxyethyl urea, hydroxyethyl urea] the “Percentage of water absorbed based” value ([1]; 10% rel. humidity) was 2.4%, the “Percentage of water absorbed based” value ([1]; 20% rel. humidity) was 5.4% and the “Percentage of water absorbed based” value ([1]; 30% rel. humidity) was 9.2%. The “Percentage of water absorbed based” value ([1]; 40% rel. humidity) was 14.1% and the “Percentage of water absorbed based” value ([1]; 50% rel. humidity) was 19.7%.
